According to ChEMBL document CHEMBL1201862, “PubChem BioAssay data set” (2004):
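Protocol summary: plate cells (96-well), add compound at 5 concentrations, incubate 48 h, interpolate endpoints linearly. GI50 is the concentration that inhibits growth by half.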 The source made the active and inactive calls. Rule as the data show it: active = GI50 up to about 1.1 µM and inactive = higher.

How the values were obtained:
Experiment in all cases: inhibition of tumour cell growth, NCI panel, 48 h
[1] = test system: HOP-62
[2] = test system: M19-MEL
[3] = test system: CAKI-1
[4] = test system: OVCAR-3
[5] = test system: CCRF-CEM
[6] = test system: Malme-3M
[7] = test system: M14
[8] = test system: SK-MEL-2
[9] = test system: SF-268
[10] = test system: OVCAR-8
[11] = test system: ACHN
[12] = test system: HCT-116
[13] = test system: UACC-257
[14] = test system: RPMI-8226
[15] = test system: HCT-15
[16] = test system: UACC-62
[17] = test system: SNB-78
[18] = test system: SN12C
[19] = test system: XF498
[20] = test system: COLO 205
[21] = test system: DMS-273
[22] = test system: SNB-75
[23] = test system: SNB-19
[24] = test system: HL-60
[25] = test system: LOX IMVI
[26] = test system: DMS-114
[27] = test system: SK-MEL-5
[28] = test system: NCI-H226
[29] = test system: KM-20L2
[30] = test system: NCI-H522
[31] = test system: NCI-H23
[32] = test system: UO-31
[33] = test system: 786-0
[34] = test system: SK-MEL-28
[35] = test system: A549
[36] = test system: U-251
[37] = test system: NCI-H460
[38] = test system: KM12
[39] = test system: LXFL 529
[40] = test system: MOLT-4
[41] = test system: SF-539
[42] = test system: HOP-92
[43] = test system: OVCAR-5
[44] = test system: OVCAR-4
[45] = test system: EKVX
[46] = test system: K562
[47] = test system: HCC 2998
[48] = test system: SR
[49] = test system: SW-620
[50] = test system: TK-10
[51] = test system: DLD-1
[52] = test system: A498
[53] = test system: SF-295
[54] = test system: SK-OV-3
[55] = test system: RXF 393
[56] = test system: IGROV-1
[57] = test system: MCF7
[58] = test system: HT-29
[59] = test system: HOP-18
[60] = test system: NCI/ADR-RES

For `CC(C)OP(=O)(OC(C)C)/C(=N/Nc1ccc([N+](=O)[O-])cc1)NNC(=O)c1ccccc1`, the GI50 [1] was > 100 µM (inactive), the GI50 [2] was 20.9 µM (inactive) and the GI50 [3] was 76.6 µM (inactive). For the same molecule, the GI50 [4] was 34.3 µM (inactive), the GI50 [5] was 17.7 µM (inactive) and the GI50 [6] was > 100 µM (inactive). The GI50 [7] was 33.2 µM (inactive), the GI50 [8] was 43.2 µM (inactive) and the GI50 [9] was 36.7 µM (inactive). The GI50 [10] was 34.7 µM (inactive), the GI50 [11] was 82.4 µM (inactive) and the GI50 [12] was 34.2 µM (inactive). The GI50 [13] was 37.3 µM (inactive), the GI50 [14] was 29.7 µM (inactive) and the GI50 [15] was 48.1 µM. The GI50 [16] was 20.5 µM (inactive), the GI50 [17] was 24.4 µM (inactive) and the GI50 [18] was > 100 µM (inactive). For the same molecule, the GI50 [19] was 24.8 µM (inactive), the GI50 [20] was 36.1 µM (inactive) and the GI50 [21] was > 10 µM (inactive). The GI50 [22] was 73.5 µM (inactive), the GI50 [23] was 73.8 µM (inactive) and the GI50 [24] was 19.7 µM (inactive). The GI50 [25] was 21.3 µM (inactive), the GI50 [26] was 21.8 µM (inactive) and the GI50 [27] was 17.4 µM (inactive). For the same molecule, the GI50 [28] was 19 µM (inactive), the GI50 [29] was 48.4 µM (inactive) and the GI50 [30] was 42.4 µM (inactive). For the same molecule, the GI50 [31] was 24.7 µM (inactive), the GI50 [32] was 41.5 µM (inactive) and the GI50 [33] was > 100 µM (inactive). The GI50 [34] was 40.6 µM (inactive), the GI50 [35] was 55.6 µM (inactive) and the GI50 [36] was 26.1 µM (inactive). For the same molecule, the GI50 [37] was 28.8 µM (inactive), the GI50 [38] was 38.3 µM (inactive) and the GI50 [39] was 20 µM (inactive). The GI50 [40] was 17.2 µM (inactive), the GI50 [41] was > 100 µM (inactive) and the GI50 [42] was 24.9 µM (inactive). The GI50 [43] was > 100 µM (inactive), the GI50 [44] was 31.4 µM (inactive) and the GI50 [45] was > 100 µM (inactive). The GI50 [46] was 29.8 µM (inactive), the GI50 [47] was 25.8 µM (inactive) and the GI50 [48] was 22.3 µM (inactive). The GI50 [49] was 32.8 µM (inactive), the GI50 [50] was > 100 µM (inactive) and the GI50 [51] was 39.2 µM (inactive).
In the case of `CC(C)CC/N=c1/cc2n(-c3ccc(Cl)cc3)c3ccccc3nc-2cc1Nc1ccc(Cl)cc1`, the GI50 [1] is reported as 8.71 µM (inactive), the GI50 [52] is reported as 15 µM (inactive) and the GI50 [2] is reported as 6.89 µM (inactive). For the same molecule, the GI50 [3] was 10.4 µM (inactive), the GI50 [4] was 2 µM (inactive) and the GI50 [5] was 3.72 µM (inactive). For the same molecule, the GI50 [6] was 11.9 µM (inactive), the GI50 [8] was 3.96 µM (inactive) and the GI50 [9] was 27.5 µM (inactive). The GI50 [10] was 7.78 µM (inactive), the GI50 [12] was 3.77 µM (inactive) and the GI50 [53] was 11.9 µM (inactive). For the same molecule, the GI50 [13] was 7.6 µM (inactive), the GI50 [14] was 2.22 µM (inactive) and the GI50 [15] was 3.42 µM. For the same molecule, the GI50 [16] was 5.52 µM (inactive), the GI50 [17] was 15.5 µM (inactive) and the GI50 [18] was 9.27 µM (inactive). For the same molecule, the GI50 [19] was 6.64 µM (inactive), the GI50 [20] was 1.95 µM (inactive) and the GI50 [54] was 18.1 µM (inactive). The GI50 [21] was 14.6 µM (inactive), the GI50 [22] was 9.75 µM (inactive) and the GI50 [23] was 32.3 µM (inactive). For the same molecule, the GI50 [24] was 2.51 µM (inactive), the GI50 [25] was 2.89 µM (inactive) and the GI50 [26] was 1.94 µM (inactive). The GI50 [27] was 12.7 µM (inactive), the GI50 [28] was 6.25 µM (inactive) and the GI50 [29] was 1.34 µM (inactive). For the same molecule, the GI50 [30] was 2.11 µM (inactive), the GI50 [31] was 3.43 µM (inactive) and the GI50 [32] was 5.56 µM (inactive). For the same molecule, the GI50 [34] was 15.6 µM (inactive), the GI50 [35] was 15.3 µM (inactive) and the GI50 [36] was 8.67 µM (inactive). The GI50 [37] was 4.92 µM (inactive), the GI50 [55] was 3.37 µM (inactive) and the GI50 [56] was 3.13 µM (inactive). The GI50 [38] was 4.3 µM (inactive), the GI50 [57] was 5.36 µM (inactive) and the GI50 [58] was 2.52 µM (inactive). For the same molecule, the GI50 [40] was 2.16 µM (inactive), the GI50 [41] was 16 µM (inactive) and the GI50 [42] was 4.92 µM (inactive). The GI50 [43] was 12.4 µM (inactive), the GI50 [44] was 2.65 µM (inactive) and the GI50 [45] was 6.12 µM (inactive). The GI50 [59] was 7.05 µM (inactive), the GI50 [60] was 10.1 µM (inactive) and the GI50 [46] was 2.96 µM (inactive). The GI50 [47] was 3.86 µM (inactive), the GI50 [49] was 6.44 µM (inactive) and the GI50 [51] was 1.97 µM (inactive).
`Nc1nc(N)nc(-c2ccccc2NS(=O)(=O)c2ccc([N+](=O)[O-])cc2)n1` was tested, and the GI50 [1] was > 100 µM (inactive), the GI50 [52] was > 100 µM (inactive) and the GI50 [2] was 34.9 µM (inactive). For the same molecule, the GI50 [4] was 54 µM (inactive), the GI50 [5] was 27.5 µM (inactive) and the GI50 [6] was > 100 µM (inactive). For the same molecule, the GI50 [8] was 81.5 µM (inactive), the GI50 [9] was 96.8 µM (inactive) and the GI50 [10] was 40.1 µM (inactive). For the same molecule, the GI50 [12] was 67.5 µM (inactive), the GI50 [53] was 99.1 µM (inactive) and the GI50 [13] was 43 µM (inactive). The GI50 [14] was 45.9 µM (inactive), the GI50 [15] was greater than 84.5 µM and the GI50 [16] was > 96.6 µM (inactive). For the same molecule, the GI50 [17] was > 74.1 µM (inactive), the GI50 [18] was 97.3 µM (inactive) and the GI50 [19] was 18.2 µM (inactive). The GI50 [20] was 17.9 µM (inactive), the GI50 [54] was > 100 µM (inactive) and the GI50 [21] was 55.8 µM (inactive). For the same molecule, the GI50 [22] was > 52.2 µM (inactive), the GI50 [23] was > 100 µM (inactive) and the GI50 [24] was 19.3 µM (inactive). The GI50 [25] was 38.2 µM (inactive), the GI50 [26] was 25.8 µM (inactive) and the GI50 [27] was 29 µM (inactive). The GI50 [28] was 61.2 µM (inactive), the GI50 [29] was > 100 µM (inactive) and the GI50 [30] was 55.8 µM (inactive). The GI50 [31] was 37.2 µM (inactive), the GI50 [32] was > 54.8 µM (inactive) and the GI50 [34] was > 100 µM (inactive). The GI50 [35] was > 91.2 µM (inactive), the GI50 [36] was > 84.9 µM (inactive) and the GI50 [37] was 42.9 µM (inactive). For the same molecule, the GI50 [55] was > 52 µM (inactive), the GI50 [56] was > 100 µM (inactive) and the GI50 [38] was 84.9 µM (inactive). For the same molecule, the GI50 [57] was > 81.5 µM (inactive), the GI50 [58] was 53.7 µM (inactive) and the GI50 [40] was > 54.5 µM (inactive). For the same molecule, the GI50 [41] was > 100 µM (inactive), the GI50 [42] was > 100 µM (inactive) and the GI50 [43] was > 100 µM (inactive). For the same molecule, the GI50 [44] was 44.2 µM (inactive), the GI50 [45] was > 100 µM (inactive) and the GI50 [59] was > 100 µM (inactive). For the same molecule, the GI50 [60] was 17.3 µM (inactive), the GI50 [46] was > 10 µM (inactive) and the GI50 [47] was > 70.5 µM (inactive). The GI50 [49] was > 100 µM (inactive) and the GI50 [51] was 59.6 µM (inactive).
